One assay addresses PDGFRβ (Homo sapiens (Human), UniProt P09619). The experiment in a line: Inhibition of PDGFRβ kinase activity (HTRF KinEASE-TK). The following applies: biochemical, HTRF KinEASE-TK. The procedure, abridged:
(§1)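 Phosphorylation of biotinylated TK peptide read by HTRF (665/620 nm ratio) after 120 min at rt, following 1 h enzyme–compound preincubation. ATP (2× mix): 20 μM CSF1R, 16 μM c-Kit, 40 μM PDGFRβ, 1 μM PDGFRα; MgCl2 10 mM except c-Kit 5 mM. 22-point 1:2 titration; four-parameter IC50.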

The target in the next assay is PDGFRα (Homo sapiens (Human), UniProt P16234). The experiment in a line: Inhibition of PDGFRα kinase activity (HTRF KinEASE-TK). Particulars: biochemical, HTRF KinEASE-TK. In a few lines: as §1
Sequence of PDGFRα (P16234 24-1089): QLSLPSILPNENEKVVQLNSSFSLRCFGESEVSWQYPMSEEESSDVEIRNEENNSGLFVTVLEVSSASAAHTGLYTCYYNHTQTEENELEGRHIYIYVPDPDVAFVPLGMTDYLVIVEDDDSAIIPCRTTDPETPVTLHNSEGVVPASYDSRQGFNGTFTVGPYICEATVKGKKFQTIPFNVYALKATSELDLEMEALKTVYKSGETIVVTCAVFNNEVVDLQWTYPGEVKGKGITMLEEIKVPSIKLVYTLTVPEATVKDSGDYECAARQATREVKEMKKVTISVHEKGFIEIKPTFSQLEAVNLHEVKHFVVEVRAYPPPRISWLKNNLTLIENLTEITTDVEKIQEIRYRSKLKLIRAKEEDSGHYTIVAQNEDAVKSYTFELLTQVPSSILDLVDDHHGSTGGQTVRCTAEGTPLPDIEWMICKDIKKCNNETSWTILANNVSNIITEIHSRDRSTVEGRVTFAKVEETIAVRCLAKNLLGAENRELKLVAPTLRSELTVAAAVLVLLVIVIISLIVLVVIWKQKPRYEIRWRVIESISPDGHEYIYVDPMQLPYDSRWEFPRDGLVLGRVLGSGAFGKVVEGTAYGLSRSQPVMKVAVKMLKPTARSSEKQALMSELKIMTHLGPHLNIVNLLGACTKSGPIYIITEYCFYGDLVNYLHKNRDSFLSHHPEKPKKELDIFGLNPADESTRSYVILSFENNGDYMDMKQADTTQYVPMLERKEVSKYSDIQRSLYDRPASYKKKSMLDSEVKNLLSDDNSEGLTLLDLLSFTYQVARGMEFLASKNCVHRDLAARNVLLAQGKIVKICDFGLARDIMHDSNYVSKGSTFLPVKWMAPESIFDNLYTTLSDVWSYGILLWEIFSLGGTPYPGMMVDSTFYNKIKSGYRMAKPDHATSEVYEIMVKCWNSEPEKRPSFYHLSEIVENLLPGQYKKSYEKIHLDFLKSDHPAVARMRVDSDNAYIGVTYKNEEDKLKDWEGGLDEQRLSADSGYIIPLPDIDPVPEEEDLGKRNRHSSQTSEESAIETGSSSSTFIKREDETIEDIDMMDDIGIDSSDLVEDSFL
A further assay deals with CSF1R (Homo sapiens (Human), UniProt P07333). Kind of assay: Inhibition of CSF1R kinase activity (HTRF KinEASE-TK). The following applies: biochemical, HTRF KinEASE-TK. The procedure, abridged:
as §1
Background: In TR-FRET formats the signal depends on donor and acceptor labels being close together.

The next assay addresses c-Kit (Homo sapiens (Human), UniProt P10721). The experiment in a line: Inhibition of c-Kit kinase activity (HTRF KinEASE-TK). It is filed as biochemical. Particulars: biochemical, HTRF KinEASE-TK. In a few lines:
as §1

For assay [1], the system named is Phospho-KIT (Y703) in M07e cells. Kind of assay: Phospho-KIT (Y703) cellular assay in M07e cells. It counts as cell-based. The following applies: M-07e. The procedure, abridged: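 Serum-starved M07e cells preincubated 50 min at 37° C with 11-point half-log compound titration, then stimulated 10 min with SCF at 90.9 ng/mL final. Fixed, permeabilized cells stained for phospho-KIT Y703 and read by flow cytometry (live-gated geometric mean); IC50 by 4-parameter fit normalized to DMSO and positive control.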

[2] abbreviates: Phospho-KIT (Y703), M07e cells, read-out: M07e Cell IC50.
Setting [3] is: M07e cells, read-out: Phospho-KIT (Y703) cellular IC50.

Like-named read-outs stand apart in the source and are kept apart here.

Sequence of PDGFRβ (P09619 33-1106): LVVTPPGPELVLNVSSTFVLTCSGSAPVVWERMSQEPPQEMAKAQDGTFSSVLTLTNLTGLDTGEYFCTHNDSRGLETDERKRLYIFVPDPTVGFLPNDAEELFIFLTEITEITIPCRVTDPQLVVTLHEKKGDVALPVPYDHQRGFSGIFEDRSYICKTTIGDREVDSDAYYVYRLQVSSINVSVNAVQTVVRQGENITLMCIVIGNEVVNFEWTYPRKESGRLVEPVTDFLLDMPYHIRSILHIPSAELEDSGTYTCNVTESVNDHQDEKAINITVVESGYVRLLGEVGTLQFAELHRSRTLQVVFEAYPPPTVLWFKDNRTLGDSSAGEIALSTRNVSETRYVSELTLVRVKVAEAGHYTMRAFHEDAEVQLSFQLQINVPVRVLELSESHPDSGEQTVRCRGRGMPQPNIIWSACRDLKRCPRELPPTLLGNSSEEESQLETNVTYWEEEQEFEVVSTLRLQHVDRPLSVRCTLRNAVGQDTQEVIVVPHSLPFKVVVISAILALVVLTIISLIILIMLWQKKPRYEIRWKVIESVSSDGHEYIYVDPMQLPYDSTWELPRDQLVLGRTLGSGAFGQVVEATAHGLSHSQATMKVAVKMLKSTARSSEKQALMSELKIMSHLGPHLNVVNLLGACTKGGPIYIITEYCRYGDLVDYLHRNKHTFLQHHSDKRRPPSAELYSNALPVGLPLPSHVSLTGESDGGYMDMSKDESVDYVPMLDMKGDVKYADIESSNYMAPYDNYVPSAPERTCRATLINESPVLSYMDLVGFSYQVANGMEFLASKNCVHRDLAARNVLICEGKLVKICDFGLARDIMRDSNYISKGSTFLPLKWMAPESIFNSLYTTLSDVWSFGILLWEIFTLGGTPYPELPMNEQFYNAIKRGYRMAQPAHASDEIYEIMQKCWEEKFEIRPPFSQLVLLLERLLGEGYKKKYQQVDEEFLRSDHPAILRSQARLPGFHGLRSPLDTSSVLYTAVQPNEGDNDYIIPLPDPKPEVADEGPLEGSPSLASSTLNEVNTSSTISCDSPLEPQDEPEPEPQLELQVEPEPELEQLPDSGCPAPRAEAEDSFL
Sequence of c-Kit (P10721 26-976): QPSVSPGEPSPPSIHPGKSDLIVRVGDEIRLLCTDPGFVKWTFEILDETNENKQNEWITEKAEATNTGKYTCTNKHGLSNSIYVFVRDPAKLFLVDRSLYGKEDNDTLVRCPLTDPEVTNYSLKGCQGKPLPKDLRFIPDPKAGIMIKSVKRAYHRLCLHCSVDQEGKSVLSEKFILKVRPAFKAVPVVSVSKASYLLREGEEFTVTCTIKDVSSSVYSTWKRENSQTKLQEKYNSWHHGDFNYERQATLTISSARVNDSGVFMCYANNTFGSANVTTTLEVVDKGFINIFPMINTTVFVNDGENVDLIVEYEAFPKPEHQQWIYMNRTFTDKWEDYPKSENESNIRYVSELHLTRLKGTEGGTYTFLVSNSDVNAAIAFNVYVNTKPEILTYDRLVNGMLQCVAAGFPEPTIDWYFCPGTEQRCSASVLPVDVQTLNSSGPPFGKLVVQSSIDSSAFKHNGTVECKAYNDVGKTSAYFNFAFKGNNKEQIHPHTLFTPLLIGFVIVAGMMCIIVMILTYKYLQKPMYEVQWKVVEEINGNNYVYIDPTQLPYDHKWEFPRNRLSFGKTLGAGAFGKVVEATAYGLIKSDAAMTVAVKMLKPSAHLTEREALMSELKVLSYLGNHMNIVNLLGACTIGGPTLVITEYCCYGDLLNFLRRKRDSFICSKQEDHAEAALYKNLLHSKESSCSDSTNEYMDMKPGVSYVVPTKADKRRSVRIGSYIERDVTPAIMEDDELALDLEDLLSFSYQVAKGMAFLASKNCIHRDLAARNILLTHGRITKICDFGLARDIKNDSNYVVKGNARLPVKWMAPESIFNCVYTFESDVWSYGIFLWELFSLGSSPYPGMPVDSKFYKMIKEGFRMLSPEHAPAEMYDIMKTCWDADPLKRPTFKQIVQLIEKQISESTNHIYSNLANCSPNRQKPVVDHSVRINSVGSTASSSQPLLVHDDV
Sequence of CSF1R (P07333 20-972): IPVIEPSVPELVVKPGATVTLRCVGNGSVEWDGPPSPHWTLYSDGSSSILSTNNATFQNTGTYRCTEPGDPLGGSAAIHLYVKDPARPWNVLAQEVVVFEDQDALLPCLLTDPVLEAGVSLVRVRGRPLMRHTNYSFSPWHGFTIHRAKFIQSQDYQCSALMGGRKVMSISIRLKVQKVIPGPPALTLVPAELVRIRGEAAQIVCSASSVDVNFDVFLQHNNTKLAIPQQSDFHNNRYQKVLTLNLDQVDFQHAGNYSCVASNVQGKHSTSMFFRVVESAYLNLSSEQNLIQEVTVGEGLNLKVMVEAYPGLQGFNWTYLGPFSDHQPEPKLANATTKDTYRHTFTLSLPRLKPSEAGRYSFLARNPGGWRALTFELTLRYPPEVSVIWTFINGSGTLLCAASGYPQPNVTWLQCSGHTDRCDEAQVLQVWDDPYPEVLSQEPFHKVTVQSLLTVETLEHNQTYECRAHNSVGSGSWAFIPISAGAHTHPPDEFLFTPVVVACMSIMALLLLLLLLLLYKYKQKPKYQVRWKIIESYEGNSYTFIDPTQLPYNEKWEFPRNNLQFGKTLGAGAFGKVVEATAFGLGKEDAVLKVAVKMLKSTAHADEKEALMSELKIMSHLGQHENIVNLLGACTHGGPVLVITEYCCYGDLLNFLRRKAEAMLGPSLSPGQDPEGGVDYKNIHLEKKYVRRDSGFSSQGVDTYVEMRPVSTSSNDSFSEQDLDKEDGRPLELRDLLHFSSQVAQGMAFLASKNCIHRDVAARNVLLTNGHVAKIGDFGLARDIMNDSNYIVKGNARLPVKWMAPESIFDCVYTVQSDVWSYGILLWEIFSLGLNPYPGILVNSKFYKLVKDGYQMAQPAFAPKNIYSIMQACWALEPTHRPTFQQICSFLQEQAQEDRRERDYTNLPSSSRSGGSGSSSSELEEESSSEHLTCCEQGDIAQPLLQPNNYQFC

In general, IC50 refers to the concentration that gives 50% inhibition. For the compound `COC[C@H]1CCCN1c1cnc(NC(=O)c2cc(NC(=O)c3cnc(C)s3)c(C)cc2F)cn1` [Example 90, N-(5-{N-5-[(R)-2-(methoxymethyl)-1-pyrrolidinyl]-2-pyrazinylcarbamoyl}-4-fluoro-2-tolyl)-2-methyl-1,3-thiazole-5-carboxamide], the IC50 was over 1000 nM against PDGFRβ; over 1000 nM against PDGFRα; over 1000 nM on CSF1R; under 100 nM on c-Kit; 100 to 1000 nM in assay [1] (setting [2]).
For the compound `Cc1ncc(C(=O)Nc2cc(C(=O)Nc3cnc(N4CCC(F)(F)C4)cn3)c(F)cc2C)s1` [Example 92, N-[5-[[5-(3,3-difluoropyrrolidin-1-yl)pyrazin-2-yl]carbamoyl]-4-fluoro-2-methylphenyl]-2-methyl-1,3-thiazole-5-carboxamide], the IC50 at PDGFRβ was over 1000 nM; against PDGFRα it was over 1000 nM; against CSF1R, over 1000 nM; against c-Kit it was under 100 nM; in assay [1] (setting [2]), under 100 nM.
With `Cc1ncc(C(=O)Nc2cc(C(=O)Nc3cnc(N4CC[C@H](F)C4)cn3)c(F)cc2C)s1` [Example 93, N-[4-fluoro-5-[[5-[(3S)-3-fluoropyrrolidin-1-yl]pyrazin-2-yl]carbamoyl]-2-methylphenyl]-2-methyl-1,3-thiazole-5-carboxamide], the IC50 was over 1000 nM at PDGFRβ; over 1000 nM against PDGFRα; over 1000 nM against CSF1R; under 100 nM on c-Kit; under 100 nM in assay [1] (setting [2]).
Regarding `Cc1ncc(C(=O)Nc2cc(C(=O)Nc3cnc(N4CC[C@@H](F)C4)cn3)c(F)cc2C)s1` [Example 94, N-[4-fluoro-5-[[5-[(3R)-3-fluoropyrrolidin-1-yl]pyrazin-2-yl]carbamoyl]-2-methylphenyl]-2-methyl-1,3-thiazole-5-carboxamide], the IC50 was over 1000 nM against PDGFRβ; over 1000 nM against PDGFRα; over 1000 nM against CSF1R; under 100 nM on c-Kit; under 100 nM in assay [1] (setting [2]).
`Cc1ncc(C(=O)Nc2cc(C(=O)Nc3cnc(N4CCC[C@H]4C(F)(F)F)cn3)c(F)cc2C)s1` [Example 95, N-[4-fluoro-2-methyl-5-[[5-[(2S)-2-(trifluoromethyl)pyrrolidin-1-yl]pyrazin-2-yl]carbamoyl]phenyl]-2-methyl-1,3-thiazole-5-carboxamide]: the IC50 against PDGFRβ was over 1000 nM; against PDGFRα, over 1000 nM; at CSF1R, over 1000 nM; against c-Kit, under 100 nM; in assay [1] (setting [2]), under 100 nM.
Regarding `COC[C@@H]1CCCN1c1cnc(NC(=O)c2cc(NC(=O)c3cnc(C)s3)c(C)cc2F)cn1` [Example 97, N-[4-fluoro-5-[[5-[(2S)-2-(methoxymethyl)pyrrolidin-1-yl]pyrazin-2-yl]carbamoyl]-2-methylphenyl]-2-methyl-1,3-thiazole-5-carboxamide], the IC50 was over 1000 nM at PDGFRβ; over 1000 nM against PDGFRα; over 1000 nM on CSF1R; under 100 nM against c-Kit; 100 to 1000 nM in assay [1] (setting [2]).
`Cc1ncc(C(=O)Nc2cc(C(=O)Nc3ccc(CC(F)(F)F)cn3)c(Cl)cc2C)s1` [Example 99, N-[4-chloro-2-methyl-5-[[5-(2,2,2-trifluoroethyl)pyridin-2-yl]carbamoyl]phenyl]-2-methyl-1,3-thiazole-5-carboxamide]: the IC50 against PDGFRβ is over 1000 nM; at PDGFRα, over 1000 nM; on CSF1R it was over 1000 nM; against c-Kit it was 100 to 1000 nM; in assay [1] (read-out: M07e Cell IC50), 100 to 1000 nM.
As to `Cc1ncc(C(=O)Nc2cc(C(=O)Nc3ccnc(CC4CC4)n3)c(F)cc2C)s1` [Example 100, N-[5-[[2-(cyclopropylmethyl)pyrimidin-4-yl]carbamoyl]-4-fluoro-2-methylphenyl]-2-methyl-1,3-thiazole-5-carboxamide], the IC50 at PDGFRβ is over 1000 nM; against PDGFRα, over 1000 nM; against CSF1R it was over 1000 nM; against c-Kit, 100 to 1000 nM; in assay [1] (setting [2]), 100 to 1000 nM.
Consider `Cc1ncc(C(=O)Nc2cc(C(=O)N[C@@H]3C[C@@H]3c3ccccc3Cl)c(F)cc2C)s1` [Example 101, N-[5-[[(1R,2R)-2-(2-chlorophenyl)cyclopropyl]carbamoyl]-4-fluoro-2-methylphenyl]-2-methyl-1,3-thiazole-5-carboxamide], for which the IC50 was 100 to 1000 nM at PDGFRβ; under 100 nM against PDGFRα; 100 to 1000 nM on CSF1R; under 100 nM against c-Kit; under 100 nM in assay [1] (setting [2]).
Regarding `Cc1cc(F)c(C(=O)Nc2ccc(O[C@@H]3CCOC3)cn2)cc1NC(=O)c1cnc(N)s1` [Example 198, 2-Amino-N-[4-fluoro-2-methyl-5-[[5-[(3R)-oxolan-3-yl]oxypyridin-2-yl]carbamoyl]phenyl]-1,3-thiazole-5-carboxamide], the IC50 was 100 to 1000 nM on PDGFRβ; over 1000 nM against PDGFRα; over 1000 nM on CSF1R; under 100 nM at c-Kit; under 100 nM in assay [1] (setting [2]).
On to `Nc1ncc(C(=O)Nc2cc(C(=O)Nc3ccc(C4CC4)nn3)c(F)cc2Cl)s1` [Example 201, 2-Amino-N-[2-chloro-5-[(6-cyclopropylpyridazin-3-yl)carbamoyl]-4-fluorophenyl]-1,3-thiazole-5-carboxamide], for which the IC50 at PDGFRβ was 100 to 1000 nM; against PDGFRα it was over 1000 nM; on CSF1R it was 100 to 1000 nM; against c-Kit, under 100 nM; in assay [1] (setting [2]), under 100 nM.
Consider `CC(C)Oc1ccc(NC(=O)c2cc(NC(=O)c3cnc(N)s3)c(Cl)cc2F)nc1` [Example 207, 2-Amino-N-[2-chloro-4-fluoro-5-[(5-propan-2-yloxypyridin-2-yl)carbamoyl]phenyl]-1,3-thiazole-5-carboxamide], for which the IC50 at PDGFRβ is over 1000 nM; against PDGFRα, over 1000 nM; against CSF1R it was 100 to 1000 nM; on c-Kit, under 100 nM; in assay [1] (setting [2]), under 100 nM.
As for `CCc1ccc(NC(=O)c2cc(NC(=O)c3cnc(N)s3)c(F)cc2F)nc1` [Example 214, 2-Amino-N-[5-[(5-ethylpyridin-2-yl)carbamoyl]-2,4-difluorophenyl]-1,3-thiazole-5-carboxamide], the IC50 at PDGFRβ is over 1000 nM; against PDGFRα it was over 1000 nM; at CSF1R, over 1000 nM; at c-Kit, under 100 nM; in assay [1] (setting [2]), under 100 nM.
On to `Cc1cc(F)c(C(=O)Nc2ccc(F)cc2)cc1NC(=O)c1cnc(N)s1` [Example 233, 2-Amino-N-[4-fluoro-5-[(4-fluorophenyl)carbamoyl]-2-methylphenyl]-1,3-thiazole-5-carboxamide], for which the IC50 was over 1000 nM at PDGFRβ; over 1000 nM at PDGFRα; over 1000 nM at CSF1R; under 100 nM at c-Kit; under 100 nM in assay [1] (setting [2]).
On to `Cc1cc(F)c(C(=O)Nc2ccc(COC(F)F)cn2)cc1NC(=O)c1cnc(N)s1` [Example 254, 2-Amino-N-[5-[[5-(difluoromethoxymethyl)pyridin-2-yl]carbamoyl]-4-fluoro-2-methylphenyl]-1,3-thiazole-5-carboxamide], for which the IC50 against PDGFRβ is under 100 nM; against PDGFRα, over 1000 nM; against CSF1R, 100 to 1000 nM; at c-Kit, under 100 nM; in assay [1] (setting [2]) it was under 100 nM.
As to `Cc1ncc(C(=O)Nc2cc(C(=O)NCc3ccc(F)cc3)c(F)cc2C)s1` [Example 262, N-[4-fluoro-5-[(4-fluorophenyl)methylcarbamoyl]-2-methylphenyl]-2-methyl-1,3-thiazole-5-carboxamide], the IC50 at PDGFRβ is over 1000 nM; against PDGFRα it was over 1000 nM; at CSF1R, over 1000 nM; at c-Kit, under 100 nM; in assay [1] (setting [3]), under 100 nM.
For `Cc1ncc(C(=O)Nc2cc(C(=O)NCc3ccc(F)cc3F)c(F)cc2C)s1` [Example 263, N-[5-[(2,4-difluorophenyl)methylcarbamoyl]-4-fluoro-2-methylphenyl]-2-methyl-1,3-thiazole-5-carboxamide], the IC50 on PDGFRβ was over 1000 nM; against PDGFRα, over 1000 nM; on CSF1R it was over 1000 nM; against c-Kit, under 100 nM; in assay [1] (setting [3]), under 100 nM.
Regarding `Cc1ncc(C(=O)Nc2cc(C(=O)NCc3cc(F)cc(F)c3)c(F)cc2C)s1` [Example 264, N-[5-[(3,5-difluorophenyl)methylcarbamoyl]-4-fluoro-2-methylphenyl]-2-methyl-1,3-thiazole-5-carboxamide], the IC50 was over 1000 nM on PDGFRβ; over 1000 nM on PDGFRα; over 1000 nM against CSF1R; under 100 nM against c-Kit; under 100 nM in assay [1] (setting [3]).
Take `Cc1ncc(C(=O)Nc2cc(C(=O)NCc3cccc(F)c3F)c(F)cc2C)s1` [Example 265, N-[5-[(2,3-difluorophenyl)methylcarbamoyl]-4-fluoro-2-methylphenyl]-2-methyl-1,3-thiazole-5-carboxamide]: the IC50 was over 1000 nM on PDGFRβ; over 1000 nM against PDGFRα; over 1000 nM at CSF1R; under 100 nM against c-Kit; under 100 nM in assay [1] (setting [3]).

Source of the values: patent publication US20250145606A1 (Arcus Biosciences, Inc., priority 2023, published 2025).
